From patent publication US10308645B2, “Piperidine oxadiazole and thiadiazole orexin receptor antagonists” (MERCK SHARP & DOHME CORP., priority 2014, dated 2019)

Columns and labels:
human orexin-2 receptor = human orexin-2 receptor (Homo sapiens (Human), UniProt O43614); experiment: FLIPR Ca2+ Flux Assay, hOX2R; format: cell-based; conditions: CHO cells expressing the receptor; agonist Ala-6,12 human orexin-A
Description: The utility of the compounds in accordance with the present invention as orexin receptor OX1R and/or OX2R antagonists may be readily determined without undue experimentation by methodology well known in the art, including the “FLIPR Ca^2+ Flux Assay” (Okumura et al., Biochem. Biophys. Res. Comm. 280:976-981, 2001). In a typical experiment the OX1 and OX2 receptor antagonistic activity of the compounds of the present invention was determined in accordance with the following experimental method. For intracellular calcium measurements, Chinese hamster ovary (CHO) cells expressing the rat orexin-1 receptor or the human orexin-2 receptor, are grown in Iscove's modified DMEM containing 2 mM L-glutamine, […], 1% hypoxanthine-thymidine supplement, 100 U/ml penicillin, 100 μg/ml streptomycin and 10% heat-inactivated fetal calf serum (FCS). The cells are seeded at 20,000 cells/well into Becton-Dickinson black 384-well clear bottom sterile plates coated with poly-D-lysine. All reagents were from GIBCO-Invitrogen Corp. The seeded plates are incubated overnight at 37° C. and 5% CO2. Ala-6,12 human orexin-A as the agonist is prepared as a 1 mM stock solution in 1% bovine serum albumin (BSA) and diluted in assay buffer (HBSS containing 20 mM HEPES, 0.1% BSA and 2.5 mM probenecid, pH7.4) for use in the assay at a final concentration of 70 pM. Test compounds are prepared as 10 mM stock solution in DMSO, then diluted in 384-well plates, first in DMSO, then assay buffer. On the day of the assay, cells are washed 3 times with 100 μl assay buffer and then incubated for 60 min (37° C., 5% CO2) in 60 μl assay buffer containing 1 μM Fluo-4AM ester, 0.02% pluronic acid, and 1% BSA. The dye loading solution is then aspirated and cells are washed 3 times with 100 μl assay buffer. 30 μl of that same buffer is left in each well. Within the Fluorescent Imaging Plate Reader (FLIPR, Molecular Devices), test compounds are added to the plate in a volume of 25 μl, incubated for 5 min and finally 25 μl of agonist is added. Fluorescence is measured for each well at 1 second intervals for 5 minutes and the height of each fluorescence peak is compared to the height of the fluorescence peak induced by […] Ala-6,12 orexin-A with buffer in place of antagonist. For each antagonist, IC50 value (the concentration of compound needed to inhibit 50% of the agonist response) is determined. Alternatively, compound potency can be assessed by a radioligand binding assay (described in Bergman et. al. Bioorg. Med. Chem. Lett. 2008, 18, 1425-1430) in which the inhibition constant (Ki) is determined in membranes prepared from CHO cells expressing either the OX1 or OX2 receptor. The intrinsic orexin receptor antagonist activity of a compound which may be used in the present invention may be determined by these assays.

[1] = molecular target: hOX1R (orexin-1 receptor) (Homo sapiens, UniProt O43613); experiment: FLIPR Ca2+ Flux Assay, hOX1R; format: cell-based; conditions: CHO cells expressing the receptor; agonist Ala-6,12 human orexin-A

Chain of human orexin-2 receptor (O43614 whole entry): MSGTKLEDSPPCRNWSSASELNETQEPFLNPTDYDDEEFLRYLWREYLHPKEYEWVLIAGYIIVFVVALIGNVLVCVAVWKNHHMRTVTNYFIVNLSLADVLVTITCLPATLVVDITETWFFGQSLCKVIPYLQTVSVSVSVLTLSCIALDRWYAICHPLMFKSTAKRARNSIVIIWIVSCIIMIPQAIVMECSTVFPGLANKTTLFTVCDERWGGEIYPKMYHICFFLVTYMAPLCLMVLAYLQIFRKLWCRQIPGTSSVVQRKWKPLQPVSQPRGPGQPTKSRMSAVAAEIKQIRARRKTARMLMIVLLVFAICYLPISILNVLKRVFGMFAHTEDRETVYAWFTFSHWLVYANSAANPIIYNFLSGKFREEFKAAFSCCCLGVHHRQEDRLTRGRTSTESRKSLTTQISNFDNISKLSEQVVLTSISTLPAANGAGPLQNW

| Structure (SMILES) | IC50 (human orexin-2 receptor) [nM] | IC50 [1] [µM] |
| --- | --- | --- |
| C[C@@H]1CC[C@@H](c2noc(C(C)(C)O)n2)CN1C(=O)c1ccc(F)cc1-n1nccn1 [Example 21, 2-{3-[(3R,6R)-1-{[4-Fluoro-2-(2H-1,2,3-triazol-2-yl)phenyl]carbonyl}-6-methylpiperidin-3-yl]-1,2,4-oxadiazol-5-yl}propan-2-ol] | 44 | > 10 |
| C[C@@H]1CC[C@@H](c2noc(C(C)(C)O)n2)CN1C(=O)c1ccsc1-c1ncccn1 [Example 22, 2-(3-{(3R,6R)-6-methyl-1-[(2-pyrimidin-2-ylthiophen-3-yl)carbonyl]piperidin-3-yl}-1,2,4-oxadiazol-5-yl)propan-2-ol] | 61 | > 10 |
| C[C@@H]1CC[C@@H](c2noc(C(C)(C)O)n2)CN1C(=O)c1ccccc1-c1ncccn1 [Example 23, 2-(3-{(3R,6R)-6-Methyl-1-[(2-pyrimidin-2-ylphenyl)carbonyl]piperidin-3-yl}-1,2,4-oxadiazol-5-yl)propan-2-ol] | 63 | > 10 |
| C[C@@H]1CC[C@@H](c2noc(C(C)(C)O)n2)CN1C(=O)c1cscc1-c1ncccn1 [Example 24, 2-(3-{(3R,6R)-6-methyl-1-[(4-pyrimidin-2-ylthiophen-3-yl)carbonyl]piperidin-3-yl}-1,2,4-oxadiazol-5-yl)propan-2-ol] | 76 | > 10 |
| C[C@@H]1CC[C@@H](c2nc(C(C)(C)C)no2)CN1C(=O)c1ccccc1-n1nccn1 [Example 25, (2R,5R)-5-(3-tert-Butyl-1,2,4-oxadiazol-5-yl)-2-methyl-1-{[2-(2H-1,2,3-triazol-2-yl)phenyl]carbonyl}piperidine] | 87 | 1.15 |
| CC(C)c1noc([C@@H]2CC[C@@H](C)N(C(=O)c3ccccc3-n3nccn3)C2)n1 [Example 26, (2R,5R)-2-methyl-5-[3-(1-methylethyl)-1,2,4-oxadiazol-5-yl]-1-{[2-(2H-1,2,3-triazol-2-yl)phenyl]carbonyl}piperidine] | 124 | 4.5 |
| C[C@@H]1CC[C@@H](c2nc(C(C)(C)O)no2)CN1C(=O)c1ccccc1-n1nccn1 [Example 27, 2-{5-[(3R,6R)-6-methyl-1-{[2-(2H-1,2,3-triazol-2-yl)phenyl]carbonyl}piperidin-3-yl]-1,2,4-oxadiazol-3-yl}propan-2-ol] | 75 | > 10 |
| C[C@@H]1CC[C@@H](c2nc(C3CC3)no2)CN1C(=O)c1ccccc1-n1nccn1 [Example 28, (2R,5R)-5-(3-cyclopropyl-1,2,4-oxadiazol-5-yl)-2-methyl-1-{[2-(2H-1,2,3-triazol-2-yl)phenyl]carbonyl}piperidine] | 345 | > 10 |
| C[C@@H]1CC[C@@H](c2nsc(C(C)(C)O)n2)CN1C(=O)c1ccsc1-n1nccn1 [Example 29, 2-{3-[(3R,6R)-6-Methyl-1-{[2-(2H-1,2,3-triazol-2-yl)thiophen-3-yl]carbonyl}piperidin-3-yl]-1,2,4-thiadiazol-5-yl}propan-2-ol] | 88 | > 10 |
| CC(C)Oc1ncccc1C(=O)N1C[C@H](c2nsc(C(C)(C)O)n2)CC[C@H]1C [Example 30, 2-{3-[(3R,6R)-6-methyl-1-{[2-(1-methylethoxy)pyridin-3-yl]carbonyl}piperidin-3-yl]-1,2,4-thiadiazol-5-yl}propan-2-ol] | 298 | > 10 |
| C[C@@H]1CC[C@@H](c2nsc(C(C)(C)O)n2)CN1C(=O)c1cscc1-n1nccn1 [Example 31, 2-{3-[(3R,6R)-6-methyl-1-{[4-(2H-1,2,3-triazol-2-yl)thiophen-3-yl]carbonyl}piperidin-3-yl]-1,2,4-thiadiazol-5-yl}propan-2-ol] | 110 | > 10 |
| C[C@@H]1CC[C@@H](c2nsc(C(C)(C)O)n2)CN1C(=O)c1ccccc1C1(C#N)CC1 [Example 32, 1-[2-({(2R,5R)-5-[5-(1-hydroxy-1-methylethyl)-1,2,4-thiadiazol-3-yl]-2-methylpiperidin-1-yl}carbonyl)phenyl]cyclopropane-carbonitrile] | 18 | 2.42 |
| C[C@@H]1CC[C@@H](c2nsc(C(C)(C)O)n2)CN1C(=O)c1ccccc1CS(C)(=O)=O [Example 33, 2-{3-[(3R,6R)-6-methyl-1-({2-[(methylsulfonyl)methyl]phenyl}carbonyl)piperidin-3-yl]-1,2,4-thiadiazol-5-l}propan-2-ol] | 194 | > 10 |
| C[C@@H]1CC[C@@H](c2nsc(C(C)(C)O)n2)CN1C(=O)c1ccccc1-n1ncnn1 [Example 34, 2-{3-[(3R,6R)-6-methyl-1-{[2-(2H-tetrazol-2-yl)phenyl]carbonyl}piperidin-3-yl]-1,2,4-thiadiazol-5-yl}propan-2-ol] | 339 | > 10 |
| C[C@@H]1CC[C@@H](c2nsc(C(C)(C)O)n2)CN1C(=O)c1ccccc1-n1nccn1 [Example 35, 2-{3-[(3R,6R)-6-methyl-1-{[2-(2H-1,2,3-triazol-2-yl)phenyl]carbonyl}piperidin-3-yl]-1,2,4-thiadiazol-5-yl}propan-2-ol] | 27 | 2.38 |
| C[C@@H]1CC[C@@H](c2nsc(C(C)(C)O)n2)CN1C(=O)c1ccccc1OC(F)F [Example 36, 2-{3-[(3R,6R)-1-{[2-(difluoromethoxy)phenyl]carbonyl}-6-methylpiperidin-3-yl]-1,2,4-thiadiazol-5-yl}propan-2-ol] | 243 | > 10 |
| CCOc1ccccc1C(=O)N1C[C@H](c2nsc(C(C)(C)O)n2)CC[C@H]1C [Example 37, 2-(3-{(3R,6R)-1-[(2-ethoxyphenyl)carbonyl]-6-methylpiperidin-3-yl}-1,2,4-thiadiazol-5-yl)propan-2-ol] | 146 | > 10 |
| C[C@@H]1CC[C@@H](c2nsc(C(C)(C)O)n2)CN1C(=O)c1ccccc1OC(F)(F)F [Example 39, 2-{3-[(3R,6R)-6-methyl-1-{[2-(trifluoromethoxy)phenyl]carbonyl}piperidin-3-yl]-1,2,4-thiadiazol-5-yl}propan-2-ol] | 53 | 6.38 |
| C[C@@H]1CC[C@@H](c2nsc(C(C)(C)O)n2)CN1C(=O)c1ccsc1-c1ncccn1 [Example 40, 2-(3-{(3R,6R)-6-Methyl-1-[(2-pyrimidin-2-ylthiophen-3-yl)carbonyl]piperidin-3-yl}-1,2,4-thiadiazol-5-yl)propan-2-ol] | 50 | 9.99 |
| C[C@@H]1CC[C@@H](c2nsc(C(C)(C)O)n2)CN1C(=O)c1ccccc1-c1ncccn1 [Example 41, 2-(3-{(3R,6R)-6-Methyl-1-[(2-pyrimidin-2-ylphenyl)carbonyl]piperidin-3-yl}-1,2,4-thiadiazol-5-yl)propan-2-ol] | 48 | > 10 |
| C[C@@H]1CC[C@@H](c2nsc(C(C)(C)O)n2)CN1C(=O)c1cscc1-c1ncccn1 [Example 42, 2-(3-{(3R,6R)-6-methyl-1-[(4-pyrimidin-2-ylthiophen-3-yl)carbonyl]piperidin-3-yl}-1,2,4-thiadiazol-5-yl)propan-2-ol] | 83 | > 10 |
| COC(C)(C)c1nc([C@@H]2CC[C@@H](C)N(C(=O)c3ccccc3-n3nccn3)C2)ns1 [Example 43, (2R,5R)-5-[5-(1-methoxy-1-methylethyl)-1,2,4-thiadiazol-3-yl]-2-methyl-1-{[2-(2H-1,2,3-triazol-2-yl)phenyl]carbonyl}piperidine] | 39 | 1.41 |
